The text below walks through data of US12390423B2 (priority 2019, dated 2025).

Entries after “also recorded” stand apart in the source; their conditions may differ.

The subject of series [1] is INS-1 (832/13) cells. The series is described as follows: High resolution respirometry in INS-1 (832/13) cells. The series is classed as cell-based, rat. How it is done: Cells treated with test compounds for 24 h were trypsinized, counted, and resuspended in phosphate buffer saline (PBS). High-resolution O2 consumption measurements were conducted in 2 ml of respiration medium (PBS, pH 7.5, stir speed 750 rpm) using the Oroboros Oxygraph-2k (Oroboros Instruments, Corp., Innsbruck, Austria) set to 37° C. with a gain of 2 in both chambers. Briefly, after the injection of 5 million treated INS-1 (832/13) cells or C2C12 myotubes per chamber, basal respiration was measured once steady-state respiratory flux was obtained; this represents coupled respiration fueled by available substrates from the incubation with test compounds. Uncoupled respiration was then measured following addition of the ATP synthase inhibitor oligomycin (0.25 μM). This was followed by measuring maximal respiratory rate by stepwise titration of carbonyl cyanide p-trifluoromethoxy phenyl hydrazone (FCCP; within 0.1-0.25 μM) in the presence of 1 mmol/L pyruvate. Finally, respiration was inhibited by addition of rotenone (0.5 μM; complex I inhibitor) to obtain extra-mitochondrial residual oxygen consumption. Data was recorded with DatLab software (Oroboros Instruments, Innsbruck, Austria), oxygen consumption at each step of the protocol was normalized to vehicle control and illustrated in histograms. For all HRR protocols, cell viability was determined after trypsinization and also after end of HRR runs via trypan blue cell staining and counting using a hemocytometer. No significant differences in cell viability between control and treated cells were observed.
Additionally, to indirectly assess metabolic flexibility, cells were treated the same way as described, collected and subjected to a 15 min treatment of 10 mM D-glucose before being washed and injected into the respirometer; these experiments were done to assess if cells incubated in low glucose/high fat conditions for 24 h can easily switch to glucose utilization upon acute incubation with D-glucose.

The subject of series [2] is INS-1 (832/13) cells. The series is described as follows: Glucose oxidation (D-[14C(U)]-glucose) in INS-1 (832/13) cells. The series is classed as cell-based, rat. To be noted: 25 μM AvoB, lipotoxic conditions, vs palmitate only. How it is done: C2C12 myotubes and INS-1 (832/13) cells treated as in the FAO assays described above and then incubated with D-[^14C(U)]-glucose (0.58 μC/mL) and unlabeled glucose (final glucose concentration 200 μM) for 4 h subsequent to which [^14C]—CO2 (representing complete glucose oxidation) and ASMs (representing incomplete glucose oxidation) were captured and quantified as described in the FAO method. For C2C12 myotubes, glucose oxidation and uptake was measured with and without a 30 min pre-incubation with 100 nM insulin to determine basal and insulin-mediated glucose oxidation or uptake, respectively.

In series [3] the test system is INS-1 (832/13) cells. The series is described as follows: Glucose stimulated insulin secretion (GSIS) in INS-1 (832/13) cells. In kind it is cell-based, rat. The settings on record: 0.5 mM palmitate 24 h, AvoB 25 μM, ETO 100 μM. As to the method: To measure glucose stimulated insulin secretion (GSIS) in INS-1(832/13) cells a standard protocol was adopted. […] After treatments were complete, cell media was replaced with KRB (Krebs-Ringer Bicarbonate) buffer. Cells were then challenged with 3 mM glucose for 2 h in KRB buffer after which 500 μL KRB buffer was collected and frozen in −80° C. until analysis. For another 2 h, cells were challenged with 16 mM glucose after which 500 μL KRB was collected and frozen in −80° C. until analysis. The amount of insulin released into the KRB buffer was determined by an ELISA kit (Millipore, Rat/Mouse Insulin Detection kit). Data was normalized for cellular protein content, as determined by the Micro-BCA Protein Assay kit. The glucose-dependent insulin secretory index (GSIS16/3), defined as the ratio between the insulin secretion at 16 mM (stimulatory, surrogate to postprandial glucose levels) and 3 mM (basal, surrogate to fasting glucose levels) glucose was also calculated.

The test system of series [4] is C2C12 myotubes. The series is described as follows: Mitochondrial ROS (MitoSOX) and membrane potential (JC-1) in C2C12 myotubes. The series is classed as cell-based, mouse. To be noted: 25 μM AvoB, 0.5 mM palmitate, 24 h. How it is done:
For all ROS studies, INS-1 (832/13) cells and C2C12 myotubes were treated with or without palmitate and FAO inhibitors for 24 h in low glucose cell culture media as described for the FAO assay. After treatment, cells were trypsinized and re-suspended in PBS containing 5 μM of the fluorescent dye MitoSOX® (Molecular Probes, Invitrogen) and allowed to incubate for 5-15 minutes in a humidified atmosphere containing 5% CO2 at 37° C. Cells were then washed in PBS, placed in a 96 well plate and fluorescence was measured by flow cytometry. ROS was quantified by normalizing the mean fluorescence values of live gated cells to vehicle control. Mitochondrial membrane potential (MMP) in INS-1 (832/13) and C2C12 myotubes was measured using the cationic fluorescent dye JC-1 (Molecular Probes). […] JC-1 fluoresces green in the cytosol where it exists as a monomer, after entering the mitochondria JC-1 monomers form J aggregates and fluoresce red, thus the red/green fluorescence ratio is used to determine MMP. […] Cells were then washed in PBS, placed in a 96 well plate and fluorescence was measured by flow cytometry. MMP was quantified by normalizing the mean fluorescence values of live gated cells to vehicle control. […] Cells were treated, washed and collected as described and incubated with 0.35 μM NAO and green fluorescence was measured using flow cytometry. […]

In series [5] the test system is C2C12 myotubes. The series is described as follows: Cellular ATP content in C2C12 myotubes. The settings on record: 0.5 mM palmitate 24 h, AVO 25 μM, DCA 1 mM, TRI 25 μM. The series is classed as cell-based, mouse. How it is done: Total cellular ATP content was determined using the ATP bioluminescent assay kit (Calbiochem, 119107). Briefly, cells were seeded in white walled 96-well plates (1.2×10^4 cells/well for INS-1 and 2×10^4 cells/well for C2C12) and treated for 24 h (C2C12 cells were differentiated for 5 days prior to treatments whereas INS-1 cells were treated 24 h after seeding). After treatment, culture media was removed, and cells were lysed with nucleotide releasing buffer with gentle shaking for 5 min. ATP monitoring enzyme was then added to cell lysates and plates and luminescence was read in a Biotek Synergy HT spectrophotometer (Biotek; Winooski, VT).

Series [6] can be described thus: Avocatin B oral consumption pilot clinical study (Phase I, NCT03898505).
Experimental: A single center, double-blind, placebo-controlled, randomized, pilot clinical study was executed to determine the safety of consuming 50 mg (equivalent to consuming a quarter Hass avocado pulp) or 200 mg (equivalent to consuming one Hass avocado pulp) AvoB per day for 60 days in healthy human participants (NCT03898505).
The investigational product was approved by Health Canada (natural product number (NPN) 80074296). To create the product, freeze-dried avocado pulp powder was sourced from Avocado Oil New Zealand Ltd., (Tauranga, New Zealand) and tested for absolute quantities of AvoB per gram of powder using a validated analytical method^61. Clinical trial material was then standardized to contain low dose (50 mg) or high dose (200 mg) AvoB (FIG. 9). The placebo product was formulated similarly to the investigational product except it only contained the non-medicinal food-grade ingredients used in the test product and other excipients that were used to simulate appearance, smell, texture and taste of the investigational product. Participants in every group consumed 40 g of material per day for 60 days by dissolving/blending the product in 12-16 ounces of a smoothie like diluent (e.g., milk (with or without lactose), soy milk, coconut milk, or fruit juice of the participant's choice). All three products were approximately matched for total calories per serving.
Healthy volunteers (13 males and 17 females; age range 20-54 years, BMI range 19.1-29.9) were enrolled in the study. Exclusion criteria were: presence of active clinical disease and history of diabetes, hypertension, dyslipidemia, major depressive disorders, chronic liver disorders, kidney disorders, or blood disorders. […] Primary outcome was the analysis of adverse experiences (AEs) measured throughout the study. Secondary outcomes were to ascertain safety and tolerability which were assessed through clinically relevant changes in standard laboratory evaluations (blood chemistry and hematology) measured on days 0, 30 and 60. Body mass index (BMI) and glycated hemoglobin (HbA1c) were also measured as part of secondary outcomes. […]
Mean change from baseline at day 30 and 60 for all laboratory evaluations and body weight were analysed by the non-parametric Kruskal-Wallis—One-Way Analysis of Variance on Ranks. using GraphPad Prism 6.0 (GraphPad Software, USA) where differences with p<0.05 were considered to be statistically significant. AEs were tabulated (for all randomized patients who received at least one dose of study supplements) and analyzed using Fisher's exact test of independence in Statistical Analysis System (SAS) university edition where differences with p<0.05 were considered to be statistically significant.

Regarding avocatin B [AvoB], the “Respiration after 10 mM glucose challenge (HRR, metabolic flexibility)” value in the series with INS-1 (832/13) cells [1] (25 μM AvoB, 0.25 mM palmitate 24 h, then 10 mM glucose 15 min, vs palmitate-only) was “increased basal and maximal respiration compared to the palmitate-only control”. In the series on INS-1 (832/13) cells [1] (25 μM AvoB, 0.25 mM palmitate-BSA/1 mM L-carnitine, 24 h), the “Palmitate supported respiration (OCR, HRR)” value was “inhibited palmitate supported basal and maximal-uncoupled respiration”. Also, the “Concentration imparting FAO inhibition relative to etomoxir” value in the series with INS-1 (832/13) cells [1] (AvoB 25 μM vs etomoxir 100 μM) is on record as “four-fold lower than etomoxir”. Further, the “Glucose oxidation (D-[14C(U)]-glucose to CO2)” value with INS-1 (832/13) cells [2] was “greater glucose oxidation compared to cells treated with palmitate only”. For the same substance, in the series on INS-1 (832/13) cells [3], the “Glucose stimulated insulin secretion (GSIS)” value was “rescued; also recorded: GSIS was higher”. In the series with C2C12 myotubes [4], the “Mitochondrial membrane potential (MMP, JC-1)” value is “lowers palmitate induced increases” and the “Mitochondrial superoxide levels (MitoSOX Red)” value is reported as “lowers palmitate induced increases in mitochondrial superoxide levels”. Also, the “Total cellular ATP content” value with C2C12 myotubes [5] is “restored cellular ATP content to that of control cells”. The “Body weight change between baseline and day 30” value in series [6] (both AvoB supplemented groups relative to placebo, trend, not statistically significant (p=0.10)) is “decreases in body weight”. In addition, the “Change from baseline in body mass index or glycated hemoglobin (HbA1c)” value in series [6] (either AvoB treated group compared to placebo) is “No clinically relevant changes from baseline”. The “Overall tolerability / toxicity (adverse events)” value in series [6] (healthy human participants, 50 or 200 mg AvoB/day for 60 days) was “generally well-tolerated; also recorded: exerted no toxicity”.
